Experimental data published in patent EP4763228A1, “PENTACYCLIC ACTIVE COMPOUND AND CONJUGATE THEREOF AND USE THEREOF” (Keymed Biosciences (Chengdu) Co., Ltd., priority 2023, dated 2025).

How the values were obtained:
Assay in all cases: In vitro proliferation inhibition of compounds of formula (GH), CCK8, 6 days
Assay type in all cases: cell-based, human
NCI-N87 tumor cells = tested on: NCI-N87 tumor cells
Method: (§1) The object of this experiment is to test the in vitro killing activity of the compounds of the formula (GH) of the present disclosure on A549 tumor cells (human lung cancer cells, Beijing Tongren Hospital), SK-BR-3 tumor cells (human breast cancer cells, Wuhan Punosai, Cat. No. CL-0211) and NCI-N87 tumor cells (human gastric cancer cells, Cell Resource Center, Institute of Basic Medical Sciences, Chinese Academy of Medical Sciences, Cat. No. 3111C0001CCC000481). The cells were treated with different concentrations of the compounds in vitro and cultured for 6 days, then the in vitro activity of the test compounds was evaluated based on IC50 values by measuring the number of viable cells using CCK8 (Cell Counting Kit-8, Cat. No. TS547) reagent.
(§2) Taking the test method of in vitro killing activity against A549 cells, SK-BR-3 cells and NCI-N87 cells as an example, the test was carried out as follows. […] After the cells were completely digested, 10 mL cell culture medium containing 10% FBS was added, the digested cells were eluted, centrifuged at 300 g for 5 min, and the supernatant was discarded. […]

SK-BR-3 tumor cells = tested on: SK-BR-3 tumor cells
Method: as §1, §2

A549 tumor cells = tested on: A549 tumor cells
Method: as §1, §2

[1] = conclusion in words, comparison with Reference 1 at the same dose

Structure (SMILES): O=C1OCc2c(cc3n(c2=O)Cc2c-3nc3cc4c(cc3c2CCCCO)OCO4)[C@@]1(O)CC1CC1 [Compound 3]
- IC50 (NCI-N87 tumor cells; Homo sapiens, 144 h, NCI-N87 cells, 6 days, CCK8, 2% FBS): 0.44 nM
- inhibitory effect on the proliferation of NCI-N87 cells in vitro (NCI-N87 tumor cells; [1]): significantly higher inhibitory effect
- IC50 (SK-BR-3 tumor cells; Homo sapiens, 144 h, SK-BR-3 cells, 6 days, CCK8, 2% FBS): 0.24 nM
- inhibitory effect on the proliferation of SK-BR-3 cells in vitro (SK-BR-3 tumor cells; [1]): significantly higher inhibitory effect
- IC50 (A549 tumor cells; Homo sapiens, 144 h, A549 cells, 6 days, CCK8, 2% FBS): 1.68 nM
- inhibitory effect on the proliferation of A549 cells in vitro (A549 tumor cells; [1]): significantly higher inhibitory effect
